# Tests used:
# [1] = Fluorescent response to H2O2 (Table 1); assay type: biochemical; settings: relative fluorescence intensity, blank = 10; probe 21.3 μM, H2O2 50 μM, 37° C., 10 minutes
# Procedure: (§1) Moreover, in other conditions than those of the above-described tests, reactivity of all of the compounds 1a to 1d with H2O2, other various kinds of nucleophilic agents, reducing agents and the like also was tested, respectively. More specifically, fluorescent responses of 1a to 1d with respect to a XO-HPX system, a XO-HPX-SOD system, H2O2, ascorbic acid, 1,4-hydroquinone, propylamine, diethylamine, glucose, esterase, a cytochrome P450 reductase+NADPH system, and a diaphorase+NADH system were measured, respectively. Operational processes thereof will be described below. Firstly, 1a to 1d and the above-described reagents were dissolved in HEPES of 10 mM having a pH of 7.4 so as to prepare solutions, respectively. Next, a 96 wellmicroplate was provided, where any of the solutions of 1a to 1d (25 μM, 170 μL) was poured into each of the wells, and furthermore, 30 μL of a blank solution or 30 μL of the solution of the reagent to be reacted therewith was added thereto. Final concentrations of the solutions in the wells were adjusted so that concentrations of the solutions of 1a to 1d respectively could be 21.3 μM, that of XO could be 13.1 mU/mL, those of HPX, H2O2, ascorbic acid, 1,4-hydroquinone, propylamine, diethylamine, glucose, NADPH and NADH respectively could be 50 μM, that of cytochrome P450 reductase could be 68 mU/mL, that of diaphorase could be 65 mU/mL, and that of esterase could be 0.5 U/mL, respectively. Then, after they reacted in the wells at 37° C. for 10 minutes, fluorescent responses were measured respectively. Fluorescence intensity measurement was conducted by using an ETC-272 Peltier thermostatted single cell holder (trade name) manufactured by JASCO Corporation or a SpectraMax GeminiEM fluorescence plate reader (trade name) manufactured by Molecular Devices Corporation provided with a FP-750 spectrofluorometer (trade name) manufactured by JASCO Corporation, and by setting excitation wavelengths and emission wavelengths so that those of 1a, 1b and 1c respectively could be 485 nm and 515 nm, and those of 1d respectively could be 511 nm and 540 nm.
# [2] = Fluorescent response to propylamine (Table 1); assay type: biochemical; settings: relative fluorescence intensity, blank = 10; probe 21.3 μM, propylamine 50 μM, 37° C., 10 minutes
# Procedure: as §1
# [3] = Tracking fluorescence on reaction with H2O2 (FIG. 1d); assay type: biochemical; settings: H2O2 40 μM only
# Text: (§2) This figure is a graph showing results that are obtained by tracking fluorescence by allowing the compound 1d to react with H2O2 or superoxide produced enzymatically, a horizontal axis thereof represents a reaction time (second), and a vertical axis thereof represents a fluorescence intensity (au). In the figure, (a) represents a result obtained by a reaction in the presence of HPX and XO, (b) represents a result obtained by a reaction in the presence of HPX, XO and SOD, (c) represents a result obtained by a reaction under an anaerobic condition in the presence of HPX, XO and SOD, and (d) represents a result obtained by a reaction with only H2O2. The test results shown in FIG. 1 will be described below in further detail.
# [4] = Fluorescent response to 1,4-hydroquinone (Table 1); assay type: biochemical; settings: relative fluorescence intensity, blank = 10; probe 21.3 μM, 1,4-hydroquinone 50 μM, 37° C., 10 minutes
# Procedure: as §1
# [5] = Fluorescent response to XO-HPX system, 96-well microplate (Table 1); assay type: biochemical; settings: relative fluorescence intensity, blank = 10, probe 21.3 μM, 10 minutes
# Procedure: as §1
# Voltammetry measurement = assay type: physicochemical; settings: CH3CN—H2O (3:1) containing Et4NClO4
# [6] = Tracking fluorescence with enzymatically produced superoxide (FIG. 1a-c); assay type: biochemical
# Text: as §2
# More specifically, the enzyme reaction of the compound 1d (16 μM), xanthine oxidase (XO, 0.01 U/mL) and hypoxanthine (HPX, 40 μM) at 37° C. in a HEPES buffer solution (pH 7.4, 10 mM, 2.5 mL) was tracked at an excitation wavelength of 511 nm and an emission wavelength of 531 nm, then a fluorescent response caused by the formation of the compound 2d (above Scheme 4) was observed, and a progressive curve shown in FIG. 1(a) was obtained.
# A specific description thereof will be provided below. NBT has a property of being reduced by superoxide O^2−•, and thus is used for a probe for spectrophotometric measurement and the like. However, NBT has a serious problem of being reduced not only by superoxide but also by reductase that exists in a biosystem.
# [7] = Fluorescent response to ascorbic acid (Table 1); assay type: biochemical; settings: relative fluorescence intensity, blank = 10; probe 21.3 μM, ascorbic acid 50 μM, 37° C., 10 minutes
# Procedure: as §1
smiles,measurement,setting,value
O=C1OC2(c3ccccc31)c1cc(F)c(OS(=O)(=O)c3ccc([N+](=O)[O-])cc3[N+](=O)[O-])c(F)c1Oc1c2cc(F)c(OS(=O)(=O)c2ccc([N+](=O)[O-])cc2[N+](=O)[O-])c1F [Compound 1d],"fluorescent response, H2O2",[1],11
same,"fluorescent response, propylamine",[2],10
same,"increase of fluorescence intensity with H2O2, FIG. 1(d)",[3],small enough to be neglected
same,"fluorescent response, 1,4-hydroquinone",[4],11
same,"fluorescent response, XO—HPX","[5]; XO 13.1 mU/mL, HPX 50 μM, HEPES pH 7.4, 37° C.",554
same,"fluorescent response, XO—HPX—SOD","[5]; XO-HPX with SOD, 37° C.",60
same,cathode response,Voltammetry measurement,about −0.5 V vs SCE
same,"fluorescence response with HPX and XO, FIG. 1(a)","[6]; 1d 16 μM, XO 0.01 U/mL, HPX 40 μM, 37° C., HEPES pH 7.4, ex 511 nm, em 531 nm",increase a fluorescence response significantly in a short period of time
same,"production of 2d from 1d caused by XO reductant, FIG. 1(c)","[6]; HPX, XO and SOD under the anaerobic condition",proceeded at a very low speed
same,"fluorescence response with HPX, XO and SOD, FIG. 1(b)",[6]; as FIG. 1(a) plus SOD 40 U/mL,inhibited significantly
same,"fluorescent response, ascorbic acid",[7],11
